The target of this assay is T1, AeOBP22 (odorant binding protein 22) (Aedes aegypti, UniProt Q1HRL7).
T1 construct: mature form, residues 17-138, signal peptide (1-16) removed, added N-terminal initiator Met, no tags (123 residues); monomer; 13C/15N labelled for NMR
T1 sequence (Q1HRL7 17-138): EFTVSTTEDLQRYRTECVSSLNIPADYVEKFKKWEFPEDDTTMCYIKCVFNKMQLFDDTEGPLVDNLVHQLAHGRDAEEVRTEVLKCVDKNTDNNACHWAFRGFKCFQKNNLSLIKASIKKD
The assay can be described thus: fluorescence-based binding assay (preliminary); binding confirmed by NMR.

In general, Kd refers to the concentration at which binding is half-saturated. Low readings indicate a tighter complex, high ones a looser complex. `CCCCC/C=C\C/C=C\C/C=C\C/C=C\CCCC(=O)O` [arachidonic acid] displayed a Kd of roughly 230 nM.
